From paper PMC7536072, “Molecular and functional characterization of somatostatin-type signalling in a deuterostome invertebrate” (Open Biology, 2020)
Entries after “also recorded” stand apart in the source; their conditions may differ. Bridges are numbered along the chain shown (N, C = ends). Where no end group is shown, it is not given here.

How the values were obtained:
ArSSR3 = test: GFP-aequorin luminescence receptor activation assay, CHO-K1 cells, ArSSR3 + Gα16; type: cell-based, Asterias rubens
[1] = test system: cardiac stomach of A. rubens; test: in vivo cardiac stomach eversion after injection into the perivisceral coelom; parameters: species or system Asterias rubens; conditions: n = 10
Description: When starfish (A. rubens) feed, the cardiac stomach is relaxed and everted out of the mouth over the digestible soft tissues of prey (e.g. mussels). […] Therefore, because ArSS2 causes relaxation of cardiac stomach preparations in vitro, we investigated if ArSS2 also triggers cardiac stomach eversion when injected in vivo. Firstly, 15 medium-sized starfish were starved for one week to normalize their physiological status. A Hamilton […] 50 μl syringe (Sigma-Aldrich; Gillingham, UK) was used to inject 10 μl 1 mM ArSS2, or 10 μl 1 mM asterotocin (positive control) or 10 μl water (negative control) into the […] coelom of starfish. ArSS2 was tested on five individuals firstly and then the next day, asterotocin was tested on the same batch of five individuals. For another five individuals, asterotocin was tested first and then ArSS2 was tested on the following day. The remaining five individuals were injected with water as a control. Thus, both ArSS2 and asterotocin were tested on ten starfish. For each starfish, the test agent was injected via two sites in the dorsal body wall of the arms proximal to the junctions with the central disc region. Care was taken to inject test agents into the […] coelom and not into the cardiac stomach.

[2] = test system: CHO-K1 cells transfected with an empty pcDNA3.1(+) vector; test: luminescence control assay, CHO-K1 cells transfected with empty vector; type: cell-based, Chinese hamster; conditions: 10^-12 to 10^-5 M (figure S12), 0.1 % Triton X-100 = 100%
Description: In order to characterize the candidate SS-type receptors, a G-protein-dependent receptor activation assay was employed. Chinese hamster ovary (CHO)-K1 cells stably overexpressing the calcium-sensitive bioluminescent reporter GFP-aequorin fusion protein (G5A) were used as a heterologous expression system. Plasmids containing A. rubens SS-type receptor cDNAs were co-transfected with the promiscuous human Gα16, which is widely used for receptor deorphanization assays. […] After 3 h incubation, a fixed volume of cells was injected sequentially into each well containing different concentrations of peptides using a FLUOstar Omega Plate Reader (BMG LABTECH, Ortenberg, Germany). Luminescence values were recorded over a 35 s period after injection. The total luminescence of each well over the 35 s period was calculated and normalized to the maximum value obtained in each experiment (100% activation) and to the value obtained with the vehicle media (0% activation). […] EC50 values were calculated from dose–response curves using Prism 6. The luminescence responses triggered by 10^−5 M ArSS1, 10^−5 M ArSS2 and vehicle media were analysed by one-way ANOVA using Bonferroni's multiple comparisons post hoc test in Prism 6. […]

[3] = 10 µl 10^−3 M into perivisceral coelom

ArSSR3, sequence (as listed by the source): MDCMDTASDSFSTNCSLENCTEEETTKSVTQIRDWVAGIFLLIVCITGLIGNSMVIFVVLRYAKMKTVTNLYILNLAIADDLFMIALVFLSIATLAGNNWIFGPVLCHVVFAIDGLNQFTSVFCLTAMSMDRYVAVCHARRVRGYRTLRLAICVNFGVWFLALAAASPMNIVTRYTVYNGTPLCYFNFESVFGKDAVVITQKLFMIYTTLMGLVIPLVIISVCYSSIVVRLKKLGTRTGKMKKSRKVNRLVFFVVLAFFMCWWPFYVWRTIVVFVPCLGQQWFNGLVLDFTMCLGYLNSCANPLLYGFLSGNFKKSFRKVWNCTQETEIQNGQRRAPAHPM

- EC50 (ArSSR3; ArSSR3 + Gα16 in CHO-K1 cells expressing GFP-aequorin (G5A), peptide 10^−21 to 10^−4 M, luminescence over 35 s, mean of at least three independent experiments, three repeats each, read-out: half-maximal response concentration (EC50)): 1.4 nM
Sequence: RAKNARCMADFWKGRGLVDC (disulfide 7-20 (inferred)) [ArSS2]
- mean total luminescence response relative to background (ArSSR3; ArSSR3, 10^−5 M, background detected with assay media or with ArSS1): 46 575 times the background luminescence
- luminescence compared with control (ArSSR3; ArSSR3, 10^−5 M, vs BSA media (control) and, for ArSS2, vs ArSS1, one-way ANOVA, Bonferroni): significantly higher than the luminescence in cells exposed to ArSS1 or BSA media (control)
- triggering of luminescence (ArSSR3; ArSSR3, 10^−21 to 10^−4 M): caused dose-dependent luminescence
- mean maximal eversion, area of everted cardiac stomach ([1]; 10 µl 10^−3 M into perivisceral coelom, 10 min recording): approximately 10 % of the area of the central disc region
- incidence of cardiac stomach eversion [1, 3]: all of the animals
- time of mean maximal eversion after injection [1, 3]: approximately 4 min
- magnitude of cardiac stomach eversion compared with asterotocin ([1]; 10 µl 10^−3 M): much less than that induced by asterotocin
- luminescence response in cells with empty vector [2]: do not trigger luminscence; also recorded: Neither ArSS1 nor ArSS2 elicited responses
